From patent US10745355B2, “Anti-cancer compounds” (THE UNIVERSITY OF SYDNEY, priority 2015, dated 2020)

Experiments:
[1] = tested on: U87vIII; assay: Annexin-FITC/7-AAD apoptosis assay, U87vIII cells; type: cell-based; conditions: 48 hours treatment
Method: (§1) FIGS. 4A-4D. […] U87 (4A-4B) and U87vIII (4C-4D) cells were treated with SC-38 for 48 hours and stained with Annexin-FITC/7-AAD. Apoptotic cells were visualized using the MUSE cell analyzer (Millipore).
(§2) FIGS. 6A-6D. […] U87 (A B) (6A-6B) and U87vIII (6C-6D) cells were treated with compound 1-08 for 48 hours and stained with Annexin-FITC/7-AAD. Apoptotic cells were visualized using the MUSE cell analyzer (Millipore). Results are means±SEM from 3 independent experiments. One-way ANOVA followed by Dunnet post-test was used to calculate statistical significance (***P<0.001).
(§3) U87 (FIGS. 4, A-B) and U87vIII (FIG. 4, C-D) cells were treated with SC-38 for 48 hours and stained with Annexin-FITC/7-AAD. Apoptotic cells were visualized using the MUSE cell analyzer (Millipore). Results are means±SEM from 3 independent experiments. One-way ANOVA followed by Dunnet post-test was used to calculate statistical significance (**P<0.01, ***P<0.001)
as §3, with “6,” for “4,”, “compound 1-08” for “SC-38”, “three” for “3”, “(***P<0.001).” for “(**P<0.01, ***P<0.001)”

[2] = tested on: U87; assay: Annexin-FITC/7-AAD apoptosis assay, U87 cells; type: cell-based; conditions: 48 hours treatment
Method: as §1, §2, §3
as §3, with “6,” for “4,”, “compound 1-08” for “SC-38”, “three” for “3”, “(***P<0.001).” for “(**P<0.01, ***P<0.001)”

[3] = tested on: U87vIII; assay: Alamar blue cell viability assay, U87vIII cells; type: cell-based; conditions: 72 hours of treatment; mean±SEM, three independent experiments
Method: (§4) U87 and U251 cell lines were obtained from the European Collection of Cell Cultures (ECACC) through CellBank Australia. U87-EGFRvIII cell line was obtained from their lab of origin (Nishikawa et al., 1994, Proc Natl Acad Sci USA 91: 7727-7731) and tested for EGFR amplification and mutation by immunoblotting and flow cytometry. Cells were cultured in DMEM medium (Invitrogen by Life Technologies, Carlsbad, Calif., USA) supplemented with 10% FBS (Sigma-Aldrich) at 37° C. and 5% CO2. Primary gliomaspheres (RN1, classical; WK1, mesenchymal) were derived from glioblastoma specimens (Day et al., 2013, Cancers 5: 357-371; Day et al., 2013, Cancer Cell 23: 238-248), maintained in StemPro NSC serum-free media supplemented with EGF and FGF (all Life Technologies), and grown on matrigel-coated flasks (Pollard et al., 2009, Cell Stem Cell 4: 568-580).
(§5) Cell viability was determined using Alamar blue assay after 72 hours of treatment (Table 2). EC50 values were calculated using non-linear regression on Graph Pad Prism version 5. c Log P values calculated using ChemBioDraw Software. Results are mean±SEM from three independent experiments performed in triplicates.

[4] = tested on: glioma cell lines; assay: Viability (Alamar Blue) and cytotoxicity (ToxiLight) in glioma cell lines; type: cell-based; conditions: 10 nM-10 μM, 72 hours
Method: Cells were treated with SC-38 (10 nM-10 μM) for 72 hours. Cells were subjected to viability testing (left, Alamar Blue viability assay, Invitrogen) and supernatant harvested for bioluminescent cytotoxicity analysis (right, ToxiLight™ bioassay kit, Lonza).

[5] = tested on: WK1 gliomaspheres (mesenchymal); assay: AlamarBlue cell viability assay, WK1 gliomaspheres; type: cell-based; conditions: 72 h of drug treatment, FIG. 11B
Method: (§6) FIGS. 11A-11B. Efficacy of SC-38 (referred to as “CMPD1”), compound 1-08 (referred to as “cmpd 13”), compound 1-18 (referred to as “cmpd 7”), and compound 1-38 (referred to as “cmpd 10”) in primary gliomaspheres representing two glioblastoma subtypes. (11A) RN1, classical, and (11B) WK1, mesenchymal. Cellular efficacy (EC50) of test compounds was determined using AlamarBlue cell viability assay after 72 h of drug treatment. Data are mean±SEM from 3 independent experiments performed in triplicate.
as §4
The effect of SC-38, and compounds 1-08, 1-18 and 1-38 in a cell viability assay employing patient-derived gliomaspheres was also investigated. RN1 gliomaspheres representing glioblastoma of the classical subtype were most responsive to the treatment (FIG. 11, where SC-38 is referred to as “CMPD1”, compound 1-08 is referred to as “compound 13”, compound 1-18 is referred to as “compound 7”, and compound 1-38 is referred to as “compound 10”).

[6] = tested on: U251; assay: Alamar blue cell viability assay, U251 cells; type: cell-based; conditions: Homo sapiens, U-251; 72 hours of treatment; mean±SEM, three independent experiments
Method: as §4, §5

[7] = tested on: U87; assay: Alamar blue cell viability assay, U87 cells; type: cell-based; conditions: Homo sapiens, U-87 MG; 72 hours of treatment; mean±SEM, three independent experiments
Method: as §4, §5

[8] = tested on: RN1 gliomaspheres (classical); assay: AlamarBlue cell viability assay, RN1 gliomaspheres; type: cell-based; conditions: 72 h of drug treatment, FIG. 11A
Method: as §6
as §4, with “568-580). […]” for “568-580).”

[9] = Brain uptake in BALB/c mice; type: in vivo; conditions: 10 mg/kg intraperitoneally, brains harvested at 30 and 60 min, HPLC
Method: BALB/c mice were injected intraperitoneally with tested inhibitor (10 mg/kg) and brains harvested at 30 and 60 min. Solid-phase extraction was performed using brain homogenates and the amount of the test compound was determined with HPLC. Lapatinib data are from Polli, J. W. et al. “The Role of Efflux and Uptake Transporters in N-{3-Chloro-4-[(3-fluorobenzyl)oxy]phenyl}-6-[5-({[2-(methylsulfonyl)ethyl]amino}methyl)-2-furyl]-4-quinazolinamine (GW572016, Lapatinib) Disposition and Drug Interactions”, Drug Metabolism and Disposition 36, 695-701 (2008).

[10] = target: T1, Porcine brain tubulin (Sus scrofa, UniProt P02550+P02554); assay: Fluorescence-based tubulin polymerisation assay; type: biochemical; conditions: 37° C., FIG. 10A
T1 construct: purchased Cytoskeleton, Colo., USA (Tubulin Polymerisation Assay kit); host or cells: porcine brain (tissue-purified)
Method: FIGS. 10A-10D. […] (10A) Compound 1-08 inhibits tubulin polymerisation in vitro. Data are expressed as mean from at least 3 independent experiments; each data point was performed in triplicates. (10B) U87 cells treated with compound 1-08 (24 h) were stained with Alexa488-labelled anti-β-tubulin antibody (green) or DAPI (blue). Treatment profoundly disturbed the microtubule network and caused formation of multinucleated cell (white arrows). White scale bar represents 50 μm. Multinucleated cells were manually counted and at least 200 cells were counted for each sample. Data in the bar graph (10C) are expressed as mean±SEM (n=3; * P<0.05, *** P<0.001; 1-way ANOVA followed by Newman-Keuls posttest). (10D) U87 cells were treated with compound 1-08 (48 h), tubulin and DNA were stained as in (10B). Treatment with 1-08 caused defective mitotic spindle formation. Representative images from 3 independent experiments are shown. White scale bar represents 2 μm.
The effect of compound 1-08 on tubulin polymerisation and mitotic spindle formation was also investigated. The fluorescence-based tubulin polymerisation assay was conducted in the final volume of 55 μL using the Tubulin Polymerisation Assay kit (Cytoskeleton, Colo., USA) as per the manufacturer's instructions. Porcine brain tubulin was incubated with test compounds (paclitaxel, vinblastine and compound 1-08) at 37° C. and fluorescence was measured using FLUOstar Omega microplate reader (BMG Labtech, Ortenberg, Germany; excitation at 355 nm and emission at 460 nm). […] To test whether compound 1-08 alters microtubules in vivo, U87 glioblastoma cells were treated with compound 1-08 and the effect on the microtubules was determined by immunofluorescence staining of β-tubulin. […] The consequence of microtubule depolymerisation induced by compound 13 was disrupted spindle assembly (FIG. 10D). In untreated U87 cells undergoing mitosis, microtubules are assembled into bipolar spindles (control images).

T1 sequence (P02550 whole entry): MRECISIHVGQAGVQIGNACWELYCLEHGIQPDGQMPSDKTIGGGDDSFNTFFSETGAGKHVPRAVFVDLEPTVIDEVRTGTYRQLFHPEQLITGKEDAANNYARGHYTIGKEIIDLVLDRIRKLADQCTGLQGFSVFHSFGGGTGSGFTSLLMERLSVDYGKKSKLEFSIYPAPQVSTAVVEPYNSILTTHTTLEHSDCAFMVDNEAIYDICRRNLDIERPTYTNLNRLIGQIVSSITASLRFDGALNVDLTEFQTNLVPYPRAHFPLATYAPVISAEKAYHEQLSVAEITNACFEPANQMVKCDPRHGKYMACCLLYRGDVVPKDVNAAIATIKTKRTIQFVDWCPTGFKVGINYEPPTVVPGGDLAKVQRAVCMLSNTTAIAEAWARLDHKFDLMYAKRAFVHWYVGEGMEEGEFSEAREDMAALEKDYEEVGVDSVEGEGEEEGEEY
T1 sequence (P02554 whole entry): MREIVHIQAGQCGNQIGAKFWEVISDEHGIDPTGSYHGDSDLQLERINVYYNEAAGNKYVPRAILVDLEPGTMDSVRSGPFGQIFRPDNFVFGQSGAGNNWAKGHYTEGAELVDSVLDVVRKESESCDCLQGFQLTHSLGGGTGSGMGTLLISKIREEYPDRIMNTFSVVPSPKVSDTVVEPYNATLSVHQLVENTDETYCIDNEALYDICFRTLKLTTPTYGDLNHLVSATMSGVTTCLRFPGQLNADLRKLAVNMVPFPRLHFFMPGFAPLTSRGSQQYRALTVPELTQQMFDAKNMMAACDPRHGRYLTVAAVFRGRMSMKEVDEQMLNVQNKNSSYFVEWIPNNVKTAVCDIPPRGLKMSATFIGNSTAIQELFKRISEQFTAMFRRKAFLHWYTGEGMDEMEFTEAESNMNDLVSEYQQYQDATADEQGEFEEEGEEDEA

O=C(CCCc1ccc(-c2ccccc2F)cc1)Nc1ccc(O)cc1 [SC-38, reference compound]
apoptosis, U87vIII [1]: induced apoptosis | apoptosis, U87 [2]: induced apoptosis | EC50 [3]: 0.68 ± 0.1 µM | viability of glioma cell lines ([4]; Alamar Blue): decreases viability of glioma cell lines | cytotoxicity (ToxiLight) ([4]; supernatant): selectively cytotoxic | EC50 [5]: 0.91 µM | EC50 [6]: 0.43 ± 0.1 µM | EC50 [7]: 0.38 ± 0.1 µM | EC50 [8]: 0.26 µM

O=C(CCCc1ccc(-c2cccnc2)cc1)Nc1ccc(O)cc1 [Compound 1-38, N-(4-hydroxyphenyl)-4-(4-(pyridin-3-yl)phenyl)butanamide]
EC50 [3]: 4.3 ± 0.3 µM | EC50 [6]: 1.2 ± 0.1 µM | EC50 [7]: 4.6 ± 0.8 µM

NCc1ccc(-c2ccc(CCCC(=O)Nc3ccc(O)cc3)cc2)cc1 [Compound 1-07, 4-(4′-(aminomethyl)-[1,1′-biphenyl]-4-yl)-N-(4-hydroxyphenyl)butanamide]
EC50 [3]: 3.1 ± 1 µM | EC50 [6]: 1.5 ± 0.3 µM | EC50 [7]: 1.8 ± 0.3 µM

O=C(CCCc1ccc(-c2cccnc2F)cc1)Nc1ccc(O)cc1 [Compound 1-18, 4-(4-(2-fluoropyridin-3-yl)phenyl)-N-(4-hydroxyphenyl)butanamide]
EC50 [3]: 1.7 ± 0.1 µM | brain uptake / crossing of the BBB [9]: readily crossed the BBB | EC50 [5]: 2 µM | EC50 [6]: 1.6 ± 0.2 µM | EC50 [7]: 1.4 ± 0.2 µM

O=C(CCCc1ccc(Br)cc1)Nc1ccc(O)cc1 [Compound 1-17, 4-(4-bromophenyl)-N-(4-hydroxyphenyl)butanamide]
EC50 [3]: > 10 µM | EC50 [6]: > 10 µM | EC50 [7]: > 10 µM

CC(=O)O[C@H]1C(=O)[C@@]2(C)[C@H]([C@H](OC(=O)c3ccccc3)[C@]3(O)C[C@H](OC(=O)[C@H](O)[C@@H](NC(=O)c4ccccc4)c4ccccc4)C(C)=C1C3(C)C)[C@]1(OC(C)=O)CO[C@@H]1C[C@@H]2O [paclitaxel]
effect on tubulin polymerisation compared to control [10]: enhanced tubulin polymerisation

CC[C@]1(O)C[C@@H]2CN(CCc3c([nH]c4ccccc34)[C@@](C(=O)OC)(c3cc4c(cc3OC)N(C)[C@H]3[C@@](O)(C(=O)OC)[C@H](OC(C)=O)[C@]5(CC)C=CCN6CC[C@]43[C@@H]65)C2)C1 [vinblastine]
effect on tubulin polymerisation compared to control [10]: inhibited tubulin polymerisation in a dose-dependent manner

O=C(CCCc1ccc(-c2cncnc2)cc1)Nc1ccc(O)cc1 [Compound 1-01, N-(4-hydroxyphenyl)-4-(4-(pyrimidin-5-yl)phenyl)butanamide]
EC50 [3]: > 10 µM | EC50 [6]: > 10 µM | EC50 [7]: > 10 µM

O=C(CCCc1ccc(-c2cccnc2F)cc1)Nc1ccccc1 [Compound 1-20, 4-(4-(2-fluoropyridin-3-yl)phenyl)-N-phenylbutanamide]
EC50 [3]: > 10 µM | EC50 [6]: 4.6 ± 0.2 µM | EC50 [7]: 6.6 ± 0.9 µM

COc1ncc(-c2ccc(CCCC(=O)Nc3ccc(O)cc3)cc2)cn1 [Compound 1-19, N-(4-hydroxyphenyl)-4-(4-(2-methoxypyrimidin-5-yl)phenyl)butanamide]
EC50 [3]: > 10 µM | EC50 [6]: > 10 µM | EC50 [7]: > 10 µM

O=C(CCCc1ccc(-c2ccc(F)nc2)cc1)Nc1ccc(O)cc1 [Compound 1-21, 4-(4-(6-fluoropyridin-3-yl)phenyl)-N-(4-hydroxyphenyl)butanamide]
EC50 [3]: > 10 µM | EC50 [6]: > 10 µM | EC50 [7]: 4.8 ± 1.2 µM

O=C(CCCc1ccc(-c2ccc(F)nc2F)cc1)Nc1ccc(O)cc1 [Compound 1-22, 4-(4-(2,6-difluoropyridin-3-yl)phenyl)-N-(4-hydroxyphenyl)butanamide]
EC50 [3]: 3.4 ± 0.4 µM | EC50 [6]: 1.65 ± 0.1 µM | EC50 [7]: 2.9 ± 0.9 µM
